# Measurements reported in patent US5216156A, “Non-migrating 1-hydrocarbyloxy-2,2,6,6-tetramethylpiperidine 1,3,5-triazine derivatives” (Ciba-Geigy Corporation, priority 1992, dated 1993).
# Legend:
# [1] = Hindered amine basicity (pKa); format: physicochemical; conditions: Table 1; N-substituted derivatives of 4-hydroxy-2,2,6,6-tetramethylpiperidine
# Description: There are clear advantages in using the hindered amine compounds having 1-hydrocarbyloxy substitution. In certain polymer systems, there is a definite advantage in using a less basic stabilizer. For example, the cure of acid-catalyzed thermoset melamine crosslinked automotive coatings systems can be severely retarded by an interaction between the acid catalyst and a basic hindered amine stabilizer.
# [2] = Extraction of stabilizer from polyester polyurethane refinish enamel film by refluxing toluene, GC (Example 75); conditions: 2% by weight on resin solids, film baked 30 minutes at 60° C., stored one month, refluxing toluene one hour
# Procedure: A polyester polyurethane refinish enamel is prepared from a polyester resin (DESMOPHEN® 670A-80, Mobay) and a polyurethane resin (DESMODUR® N-75, Mobay) in a ratio of 1.0:1.1 equivalents, with 1% DABCO® T-12 […] as catalyst. The enamel is stabilized with 2% by weight, based on resin solids, of various hindered amine stabilizers. The stabilized enamel is spray applied to a thickness of 1.8-2.0 mils (0.0457-0.0508 mm) onto glass plates and baked for 30 minutes at 140° F. (60° C.). After storage for one month in an air-conditioned room, the films are removed from the glass plates and placed in a round-bottomed flask and then extracted with refluxing toluene for one hour. The films are then removed and the toluene is analyzed for any stabilizer extracted by gas chromatography.
# If the stabilizer is chemically bonded to the polymer film, little if any of the stabilizer is extracted by the refluxing toluene.
# [3] = Extraction of stabilizer from high solids thermoset acrylic enamel film by refluxing toluene, GC (Example 78); conditions: refluxing toluene one hour; for Percent Stabilizer Extracted: 1% by weight on resin solids, baked 30 minutes at 121° C., stored one week, GC; for extraction of stabilizer from the stabilized enamel: in words, thermoset acrylic enamel
# Description: A model high solids thermoset acrylic enamel based on a binder of 60% of a polymer comprising monomers such as 2-hydroxyethyl acrylate, butyl acrylate, butyl methacrylate, styrene and acrylic acid, and 40% of a melamine resin with an acid catalyst such as p-toluenesulfonic acid is formulated and stabilized with 1% by weight, based on resin solids, of a variety of hindered amine stabilizers.
# This enamel is spray applied to a thickness of 1.8-2.0 mils (0.0457-0.0508 mm) onto glass plates and baked for 30 minutes at 250° F. (121° C.). After storage for one week in an air-conditioned room, the films are removed from the glass plates and placed in a round-bottomedflask and extracted with refluxing toluene for one hour. After one hour, the films are removed and the toluene extract is analyzed for extracted stabilizer by gas chromatography.
Compound,pKa [1],Percent Stabilizer Extracted [2],Percent Stabilizer Extracted [3],extraction of stabilizer from the stabilized enamel [3]
"CC1(C)CC(O)CC(C)(C)N1 [N--H, 4-hydroxy-2,2,6,6-tetramethylpiperidine]",10.0,,,
"CCCCCCCCON1C(C)(C)CC(N(CCCC)c2nc(NCCCCCC(=O)O)nc(N(CCCC)C3CC(C)(C)N(OCCCCCCCC)C(C)(C)C3)n2)CC1(C)C [Example 16, N-{4,6-Bis[(1-octyloxy-2,2,6,6-tetramethylpiperidin-4-yl)butylamino]-1,3,5-triazin-2-yl}-6-aminohexanoic acid]",,21%,,
CON1C(C)(C)CC(O)CC1(C)C [N--OMe],4.8,,,
"CCCCN(c1nc(NCCCCCC(=O)O)nc(N(CCCC)C2CC(C)(C)N(OC3CCCCC3)C(C)(C)C2)n1)C1CC(C)(C)N(OC2CCCCC2)C(C)(C)C1 [Example 15, N-{4,6-Bis[(1-cyclohexyloxy-2,2,6,6-tetramethylpiperidin-4-yl)butylamino]-1,3,5-triazin-2-yl}-6-aminohexanoic acid]",,23%,,
CN1C(C)(C)CC(O)CC1(C)C [N--Me],10.0,,,
"CCCCCCCCON1C(C)(C)CC(OC(=O)CCCCCCCCC(=O)OC2CC(C)(C)N(OCCCCCCCC)C(C)(C)C2)CC1(C)C [HA 1, bis(1-octyloxy-2,2,6,6-tetramethylpiperidin-4-yl) sebacate, reference compound]",,100%,100%,
"CCCCCCCCON1C(C)(C)CC(N(CCCC)c2nc(NCCO)nc(N(CCCC)C3CC(C)(C)N(OCCCCCCCC)C(C)(C)C3)n2)CC1(C)C [Example 2, 2-[(2-Hydroxyethyl)amino]-4,6-bis[N-(1-octyloxy-2,2,6,6-tetramethylpiperidin-4-yl)butylamino]-1,3,5-triazine]",,0%,0%,resist extraction from the stabilized enamel
"CCCCN(c1nc(NCCO)nc(N(CCCC)C2CC(C)(C)N(OC3CCCCC3)C(C)(C)C2)n1)C1CC(C)(C)N(OC2CCCCC2)C(C)(C)C1 [Example 1, 2-[(2-Hydroxyethyl)amino]-4,6-bis[N-(1-cyclohexyloxy-2,2,6,6-tetramethylpiperidin-4-yl)-butylamino]-1,3,5-triazine]",,0%,0%,resist extraction from the stabilized enamel
